The text below walks through data of patent publication US8143282B2, “Heterocyclic compounds” (S*BIO Pte Ltd., priority 2005, dated 2012).

One assay has as its system Colo205 cells. Description: Cell-based proliferation assay for GI50 (CyQUANT), Colo205. To be noted: Homo sapiens, COLO 205, 96 h treatment, read-out: Cellular or Growth Inhibition Activity in Colo205 cells, GI50. How it is done:
Human colon cancer cell lines (Colo205, HCT116), Ovarian cancer cell line (A2780), Hepatoma cell line (HEP3B), Prostate cancer cell line (PC3) were obtained from ATCC or ECACC. Colo205 cells were cultivated in RPMI 1640 containing 2 mM L-Glutamine, 5% FBS, 1.0 mM Na Pyruvate, 1 U/ml of penicillin and 1 μg of streptomycin. HCT116 cells were cultivated in McCoy's containing RPMI 1640 containing 2 mM L-Glutamine, 5% FBS, 1 U/ml of penicillin and 1 μg of streptomycin. A2780 cells were cultivated in RPMI 1640 containing 2 mM L-Glutamine, 5% FBS, 1 U/ml of penicillin and 1 μg of streptomycin. HEP3B cells were cultivated in EMEM containing 2 mM L-glutamine, 5% FBS, 1% non essential amino acid, 1 mM Na Pyruvate, 1 U/ml of penicillin and 1 μg of streptomycin. PC3 cells were cultivated in F12K, 2 mM L-glutamine, 5% FBS, 1 U/ml of penicillin and 1 μg of streptomycin. PC3, Colo205, and HCT116 cells were seeded in 96-wells plate at 1000, 5000 and 6000 cells per well respectively. A2780 and HEP3B cells were seeded in 96-wells plate at 4000 cells per well respectively. The plates were incubated at 37° C., 5% CO2, for 24 h. Cells were treated with compounds at various concentrations for 96 h. Cell growth was then monitored using CyQUANT® cell proliferation assay (Invitrogen Pte Ltd). Dose response curves were plotted to determine GI50 values for the compounds using XL-fit (ID Business Solution, Emeryville, Calif.). GI50 is defined as the concentration of compound required for 50% inhibition of cell growth.

The target of a further assay is T1, HDAC1 enzyme (Homo sapiens, UniProt Q13547).
T1 construct: Amplification of human HDAC1 coding region from this cDNA library was cloned separately into the baculovirus expression pDEST20 vector; made in house; host or cells: SF9 insect cells, pDEST20-HDAC1 baculovirus
T1 sequence (Q13547 whole entry): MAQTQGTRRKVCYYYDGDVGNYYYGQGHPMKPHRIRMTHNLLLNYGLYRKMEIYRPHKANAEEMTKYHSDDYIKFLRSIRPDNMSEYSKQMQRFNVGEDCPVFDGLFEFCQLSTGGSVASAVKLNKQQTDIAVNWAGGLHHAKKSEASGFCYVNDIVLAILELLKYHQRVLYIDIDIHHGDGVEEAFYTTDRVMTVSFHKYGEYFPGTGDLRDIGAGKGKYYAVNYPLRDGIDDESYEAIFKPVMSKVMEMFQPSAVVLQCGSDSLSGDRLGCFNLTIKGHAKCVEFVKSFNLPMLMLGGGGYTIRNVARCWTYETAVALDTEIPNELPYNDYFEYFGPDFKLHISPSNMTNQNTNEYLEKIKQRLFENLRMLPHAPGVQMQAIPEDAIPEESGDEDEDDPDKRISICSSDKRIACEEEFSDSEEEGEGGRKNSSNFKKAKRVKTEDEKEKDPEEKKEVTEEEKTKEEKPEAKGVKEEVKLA
Kind of assay: In vitro HDAC assay for determination of IC50 values (BIOMOL fluorescent-based HDAC activity assay). It is filed as biochemical. How it is done:
Human cDNA library was prepared using cultured SW620 cells. Amplification of human HDAC1 coding region from this cDNA library was cloned separately into the baculovirus expression pDEST20 vector (GATEWAY Cloning Technology, Invitrogen Pte Ltd). The pDEST20-HDAC1 construct was confirmed by DNA sequencing. Recombinant baculovirus was prepared using the Bac-To-Bac method following the manufacturer's instruction (Invitrogen Pte Ltd).
Expression of GST-HDAC1 was done by infecting SF9 cells (Invitrogen Pte Ltd) with pDEST20-HDAC1 baculovirus at MOI=1 for 48 h. Soluble cell lysate was incubated with pre-equilibrated Glutathione Sepharose 4B beads (Amersham) at 4° C. for 2 h. The beads were washed with PBS buffer for 3 times. The GST-HDAC1 protein was eluted by elution buffer containing 50 mM Tris, pH8.0, 150 mM NaCl, 1% Triton X-100 and 10 mM or 20 mM reduced Glutathione. The purified GST-HDAC1 protein was dialyzed with HDAC storage buffer containing 10 mM Tris, pH7.5, 100 mM NaCl and 3 mM MgCl2. 20% Glycerol was added to purified GST-HDAC1 protein before storage at −80° C.
The assay has been carried out in 96 well format and the BIOMOL fluorescent-based HDAC activity assay has been applied. […] Flur de lys Developer was added and the reaction was incubated for 10 min. Briefly, deacetylation of the substrate sensitizes it to the developer, which then generates a fluorophore. The fluorophore is excited with 360 nm light and the emitted light (460 nm) is detected on a fluorometric plate reader (Tecan Ultra Microplate detection system, Tecan Group Ltd.).
The analytical software, Prism 4.0 (GraphPad Software Inc) has been used to generate IC50 from a series of data.

As to `CCCCc1nc2cc(/C=C/C(=O)NO)ccc2n1CC(C)(C)CN(C)C` [Compound 3, 3-[2-Butyl-1-(3-dimethylamino-2,2-dimethyl-propyl)-1H-benzoimidazol-5-yl]-N-hydroxy-acrylamide], in the assay with Colo205 cells, the concentration for 50% growth inhibition (GI50) is 2.22 µM.
On HDAC1 enzyme, `CSCCc1nc2cc(/C=C/C(=O)NO)ccc2n1CC(C)(C)CN(C)C` [Compound 4, 3-[1-(3-Dimethylamino-2,2-dimethyl-propyl)-2-(2-methylsulfanyl-ethyl)-1H-benzoimidazol-5-yl]-N-hydroxy-acrylamide] yielded an IC50 of 0.12 µM. Moreover, the GI50 in the assay on Colo205 cells is 2.62 µM.
For the compound `CCOCc1nc2cc(/C=C/C(=O)NO)ccc2n1CC(C)(C)CN(C)C` [Compound 5, 3-[1-(3-Dimethylamino-2,2-dimethyl-propyl)-2-ethoxymethyl-1H-benzoimidazol-5-yl]-N-hydroxy-acrylamide], on HDAC1 enzyme, the 50% inhibitory concentration (IC50) is 0.17 µM. Also, in the assay with Colo205 cells, the GI50 was determined as 2.58 µM.
Compound `CC(C)Cc1nc2cc(/C=C/C(=O)NO)ccc2n1CC(C)(C)CN(C)C` [Compound 6, 3-[1-(3-Dimethylamino-2,2-dimethyl-propyl)-2-isobutyl-1H-benzoimidazol-5-yl]-N-hydroxy-acrylamide] had an IC50 against HDAC1 enzyme of 0.18 µM. Also, the GI50 in the assay with Colo205 cells worked out at 2.69 µM.
For `C#CCCc1nc2cc(/C=C/C(=O)NO)ccc2n1CC(C)(C)CN(C)C` [Compound 9, 3-[2-But-3-ynyl-1-(3-dimethylamino-2,2-dimethyl-propyl)-1H-benzoimidazol-5-yl]-N-hydroxy-acrylamide] the same measures were 0.21 µM and 1.87 µM.
As for `C=CCCc1nc2cc(/C=C/C(=O)NO)ccc2n1CC(C)(C)CN(C)C` [Compound 10, 3-[2-But-3-enyl-1-(3-dimethylamino-2,2-dimethyl-propyl)-1H-benzoimidazol-5-yl]-N-hydroxy-acrylamide], at HDAC1 enzyme, the IC50 was found to be 0.14 µM. Also, in the assay with Colo205 cells, the 50% growth inhibitory concentration (GI50) is 1.77 µM.
For `CN(C)CC(C)(C)Cn1c(CCC(F)(F)F)nc2cc(/C=C/C(=O)NO)ccc21` [Compound 13, 3-[1-(3-Dimethylamino-2,2-dimethyl-propyl)-2-(3,3,3-trifluoro-propyl)-1H-benzoimidazol-5-yl]-N-hydroxy-acrylamide], in that order: 0.42 µM and 5.5 µM.
`CCOCc1nc2cc(/C=C/C(=O)NO)ccc2n1CCN(CC)CC` [Compound 15, 3-[1-(2-Diethylamino-ethyl)-2-ethoxymethyl-1H-benzoimidazol-5-yl]-N-hydroxy-acrylamide] yielded a half-inhibitory concentration (IC50) at HDAC1 enzyme of 0.085 µM. For the same compound, the concentration for 50% growth inhibition (GI50) in the assay with Colo205 cells stood at 1.5 µM.
For `CCN(CC)CCn1c(CC(C)(C)C)nc2cc(/C=C/C(=O)NO)ccc21` [Compound 17, 3-[1-(2-Diethylamino-ethyl)-2-(2,2-dimethyl-propyl)-1H-benzoimidazol-5-yl]-N-hydroxy-acrylamide] the same measures were 0.13 µM and 1.19 µM.
The compound `CC(C)N(CCn1c(CC(C)(C)C)nc2cc(/C=C/C(=O)NO)ccc21)C(C)C` [Compound 20, 3-[1-(2-Diisopropylamino-ethyl)-2-(2,2-dimethyl-propyl)-1H-benzoimidazol-5-yl]-N-hydroxy-acrylamide] showed an IC50 against HDAC1 enzyme of 0.26 µM. For the same compound, in the assay with Colo205 cells, the GI50 was 2.66 µM.
For `CC(C)Cc1nc2cc(/C=C/C(=O)NO)ccc2n1CCN(C(C)C)C(C)C` [Compound 21, 3-[1-(2-Diisopropylamino-ethyl)-2-isobutyl-1H-benzoimidazol-5-yl]-N-hydroxy-acrylamide], in that order: 0.38 µM and 2.51 µM.
For `CN(C)CC(C)(C)Cn1c(C2CCCCC2)nc2cc(/C=C/C(=O)NO)ccc21` [Compound 24, 3-[2-Cyclohexyl-1-(3-dimethylamino-2,2-dimethyl-propyl)-1H-benzoimidazol-5-yl]-N-hydroxy-acrylamide] the same measures were 0.51 µM and 2.99 µM.
For `CN(C)CC(C)(C)Cn1c(C2CC3C=CC2C3)nc2cc(/C=C/C(=O)NO)ccc21` (stereo not shown) [Compound 25, 3-[2-Bicyclo[2.2.1]hept-5-en-2-yl-1-(3-dimethylamino-2,2-dimethyl-propyl)-1H-benzoimidazol-5-yl]-N-hydroxy-acrylamide] the same measures were 0.23 µM and 2.38 µM.
On to `CC/C=C\CCc1nc2cc(/C=C/C(=O)NO)ccc2n1CCN(CC)CC` [Compound 26, 3-[1-(2-Diethylamino-ethyl)-2-hex-3-enyl-1H-benzoimidazol-5-yl]-N-hydroxy-acrylamide], for which it took 0.04 µM to reach half-maximal inhibition against HDAC1 enzyme (IC50). Also, in the assay on Colo205 cells, the concentration for 50% growth inhibition (GI50) came out at 0.37 µM.
For `CC/C=C\CCc1nc2cc(/C=C/C(=O)NO)ccc2n1CCN(C(C)C)C(C)C` [Compound 27, 3-[1-(2-Diisopropylamino-ethyl)-2-hex-3-enyl-1H-benzoimidazol-5-yl]-N-hydroxy-acrylamide], in that order: 0.23 µM and 1.42 µM.
At HDAC1 enzyme, `CC/C=C\CCc1nc2cc(/C=C/C(=O)NO)ccc2n1CCNC(C)C` [Compound 28, 3-[2-Hex-3-enyl-1-(2-isopropylamino-ethyl)-1H-benzoimidazol-5-yl]-N-hydroxy-acrylamide] had a concentration for half-maximal inhibition (IC50) of 0.021 µM. In the assay with Colo205 cells, the 50% growth inhibitory concentration (GI50) amounted to 0.18 µM.
`CC/C=C\CCc1nc2cc(/C=C/C(=O)NO)ccc2n1CCCNC(C)C` [Compound 29, 3-[2-Hex-3-enyl-1-(3-isopropylamino-propyl)-1H-benzoimidazol-5-yl]-N-hydroxy-acrylamide] gave an IC50 against HDAC1 enzyme of 0.13 µM. Also, the GI50 with Colo205 cells was found to be 1.92 µM.
Take `CCCCCCc1nc2cc(/C=C/C(=O)NO)ccc2n1CCN(CC)CC` [Compound 31, 3-[1-(2-Diethylamino-ethyl)-2-hexyl-1H-benzoimidazol-5-yl]-N-hydroxy-acrylamide]: the GI50 in the assay with Colo205 cells worked out at 0.42 µM.
For `CC(Cc1nc2cc(/C=C/C(=O)NO)ccc2n1CCCNC(C)C)CC(C)(C)C` (stereo not shown) [Compound 32, N-Hydroxy-3-[1-(3-isopropylamino-propyl)-2-(2,4,4-trimethyl-pentyl)-1H-benzoimidazol-5-yl]-acrylamide], half-maximal inhibition against HDAC1 enzyme (IC50) required 0.06 µM. Besides, the 50% growth inhibitory concentration (GI50) in the assay with Colo205 cells worked out at 0.74 µM.
Regarding `CC(C)NCCCn1c(CC(C)(C)C)nc2cc(/C=C/C(=O)NO)ccc21` [Compound 33, 3-[2-(2,2-Dimethyl-propyl)-1-(3-isopropylamino-propyl)-1H-benzoimidazol-5-yl]-N-hydroxy-acrylamide], at HDAC1 enzyme, the half-inhibitory concentration (IC50) is 0.23 µM. The GI50 in the assay on Colo205 cells amounted to 2.11 µM.
For `CC(C)N(CCn1c(CCC(F)(F)F)nc2cc(/C=C/C(=O)NO)ccc21)C(C)C` [Compound 34, 3-[1-(2-Diisopropylamino-ethyl)-2-(3,3,3-trifluoro-propyl)-1H-benzoimidazol-5-yl]-N-hydroxy-acrylamide] the same measures were 0.88 µM and 4.4 µM.
For `CCNCCn1c(CC(C)(C)C)nc2cc(/C=C/C(=O)NO)ccc21` [Compound 36], in that order: 0.096 µM and 0.86 µM.
For `CCNCCn1c(CC(C)C)nc2cc(/C=C/C(=O)NO)ccc21` [Compound 37, 3-[1-(2-Ethylamino-ethyl)-2-isobutyl-1H-benzoimidazol-5-yl]-N-hydroxy-acrylamide], in that order: 0.091 µM and 1.09 µM.
Take `CCCCc1nc2cc(/C=C/C(=O)NO)ccc2n1CCN(C)C` [Compound 57, 3-[2-Butyl-1-(2-dimethylamino-ethyl)-1H-benzoimidazol-5-yl]-N-hydroxy-acrylamide]: in the assay on Colo205 cells, the GI50 is 0.65 µM.
`O=C(/C=C/c1ccc2c(c1)ncn2C1CCN(CCCc2ccccc2)C1)NO` (stereo not shown) [Compound 98, (E)-N-hydroxy-3-(1-(1-(3-phenylpropyl)pyrrolidin-3-yl)-1H-benzo[d]imidazol-5-yl)acrylamide]: inhibition at HDAC1 enzyme was half-maximal at 0.32 µM (IC50).

The GI50 is the concentration that inhibits growth by half. One may read the IC50 as the concentration at which inhibition is half-maximal. A lower IC50 goes with greater potency.
